How the values were obtained:
Type in all cases: in vivo
[1] = system: Alopecurus myosuroides (ALOMY); experiment: Herbicidal glasshouse test, pre-emergence; conditions: PRE Application, evaluated after 13 days; for damage to plant (100=total damage to plant; 0=no damage to plant): 250 g/ha
Method: (§1) Seeds of a variety of test species were sown in standard soil in pots (Alopecurus myosuroides (ALOMY), Setaria faberi (SETFA), Echinochloa crus-galli (ECHCG), Abuthilon theophrasti (ABUTH) and Amaranthus retoflexus (AMARE)). After cultivation for one day (pre-emergence) or after 8 days cultivation (post-emergence) under controlled conditions in a glasshouse (at 24/16° C., day/night; 14 hours light; 65% humidity), the plants were sprayed with an aqueous spray solution derived from the formulation of the technical active ingredient in acetone/water (50:50) solution containing 0.5% Tween 20 (polyoxyethelyene sorbitan monolaurate, CAS RN 9005-64-5). Compounds were applied at 250 g/ha. The test plants were then grown in a glasshouse under controlled conditions in a glasshouse (at 24/16° C., day/night; 14 hours light; 65% humidity) and watered twice daily. After 13 days for pre and post-emergence, the test was evaluated (100=total damage to plant; 0=no damage to plant).

[2] = system: Setaria faberi (SETFA); experiment: Herbicidal glasshouse test, pre-emergence; conditions: PRE Application, evaluated after 13 days; for damage to plant (100=total damage to plant; 0=no damage to plant): 250 g/ha
Method: as §1

[3] = system: Abuthilon theophrasti (ABUTH); experiment: Herbicidal glasshouse test, pre-emergence; conditions: PRE Application, evaluated after 13 days; for damage to plant (100=total damage to plant; 0=no damage to plant): 250 g/ha
Method: as §1

[4] = system: Echinochloa crus-galli (ECHCG); experiment: Herbicidal glasshouse test, pre-emergence; conditions: PRE Application, evaluated after 13 days; for damage to plant (100=total damage to plant; 0=no damage to plant): 250 g/ha
Method: as §1

[5] = system: Amaranthus retoflexus (AMARE); experiment: Herbicidal glasshouse test, pre-emergence; conditions: PRE Application, evaluated after 13 days; for damage to plant (100=total damage to plant; 0=no damage to plant): 250 g/ha
Method: as §1

[6] = system: Alopecurus myosuroides (ALOMY); experiment: Herbicidal glasshouse test, post-emergence; conditions: POST Application, evaluated after 13 days; for damage to plant (100=total damage to plant; 0=no damage to plant): 250 g/ha
Method: as §1

[7] = system: Setaria faberi (SETFA); experiment: Herbicidal glasshouse test, post-emergence; conditions: POST Application, evaluated after 13 days; for damage to plant (100=total damage to plant; 0=no damage to plant): 250 g/ha
Method: as §1

[8] = system: Abuthilon theophrasti (ABUTH); experiment: Herbicidal glasshouse test, post-emergence; conditions: POST Application, evaluated after 13 days; for damage to plant (100=total damage to plant; 0=no damage to plant): 250 g/ha
Method: as §1

[9] = system: Echinochloa crus-galli (ECHCG); experiment: Herbicidal glasshouse test, post-emergence; conditions: POST Application, evaluated after 13 days; for damage to plant (100=total damage to plant; 0=no damage to plant): 250 g/ha
Method: as §1

[10] = system: Amaranthus retoflexus (AMARE); experiment: Herbicidal glasshouse test, post-emergence; conditions: POST Application, evaluated after 13 days; for damage to plant (100=total damage to plant; 0=no damage to plant): 250 g/ha
Method: as §1

| Compound | damage to plant (100=total damage to plant; 0=no damage to plant) [1] | damage to plant (100=total damage to plant; 0=no damage to plant) [2] | damage to plant (100=total damage to plant; 0=no damage to plant) [3] | damage to plant (100=total damage to plant; 0=no damage to plant) [4] | damage to plant (100=total damage to plant; 0=no damage to plant) [5] | damage to plant (100=total damage to plant; 0=no damage to plant) [6] | damage to plant (100=total damage to plant; 0=no damage to plant) [7] | damage to plant (100=total damage to plant; 0=no damage to plant) [8] | damage to plant (100=total damage to plant; 0=no damage to plant) [9] | damage to plant (100=total damage to plant; 0=no damage to plant) [10] | pest or weed control at 250 g/ha ([1]; Alopecurus myosuroides, pre-emergence, 312 h, read-out: damage to plant (100=total damage to plant; 0=no damage to plant)) | pest or weed control at 250 g/ha ([2]; Setaria faberi, pre-emergence, 312 h, read-out: damage to plant (100=total damage to plant; 0=no damage to plant)) | pest or weed control at 250 g/ha ([3]; Abutilon theophrasti, pre-emergence, 312 h, read-out: damage to plant (100=total damage to plant; 0=no damage to plant)) | pest or weed control at 250 g/ha ([4]; Echinochloa crus-galli, pre-emergence, 312 h, read-out: damage to plant (100=total damage to plant; 0=no damage to plant)) | pest or weed control at 250 g/ha ([5]; Amaranthus retroflexus, pre-emergence, 312 h, read-out: damage to plant (100=total damage to plant; 0=no damage to plant)) | pest or weed control at 250 g/ha ([6]; Alopecurus myosuroides, post-emergence, 312 h, read-out: damage to plant (100=total damage to plant; 0=no damage to plant)) | pest or weed control at 250 g/ha ([7]; Setaria faberi, post-emergence, 312 h, read-out: damage to plant (100=total damage to plant; 0=no damage to plant)) | pest or weed control at 250 g/ha ([8]; Abutilon theophrasti, post-emergence, 312 h, read-out: damage to plant (100=total damage to plant; 0=no damage to plant)) | pest or weed control at 250 g/ha ([9]; Echinochloa crus-galli, post-emergence, 312 h, read-out: damage to plant (100=total damage to plant; 0=no damage to plant)) | pest or weed control at 250 g/ha ([10]; Amaranthus retroflexus, post-emergence, 312 h, read-out: damage to plant (100=total damage to plant; 0=no damage to plant)) |
| --- | --- | --- | --- | --- | --- | --- | --- | --- | --- | --- | --- | --- | --- | --- | --- | --- | --- | --- | --- | --- |
| COc1ccc(Cn2c(=O)c(C(=O)C3C(=O)CCCC3=O)cc3cc(F)cnc32)cc1 [Compound 4.17] | 0 | 20 | 70 | 70 | 90 | 0 | 60 | 70 | 80 | 50 | – | – | – | – | – | – | – | – | – | – |
| COc1ccc(-n2c(=O)c(C(=O)C3C(=O)CCCC3=O)cc3cc(F)cnc32)cc1 [Compound 4.18] | 70 | 70 | 90 | 100 | 90 | 80 | 80 | 80 | 80 | 80 | – | – | – | – | – | – | – | – | – | – |
| COc1ccc(-n2c(=O)c(C(=O)C3C(=O)CCCC3=O)cc3cc(F)cnc32)cn1 [Compound 4.20] | 90 | 70 | 100 | 100 | 100 | 80 | 80 | 80 | 80 | 60 | – | – | – | – | – | – | – | – | – | – |
| Cc1ccccc1-n1c(=O)c(C(=O)C2C(=O)CCCC2=O)cc2cc(F)cnc21 [Compound 4.22] | 90 | 100 | 90 | 100 | 100 | 80 | 80 | 80 | 70 | 70 | – | – | – | – | – | – | – | – | – | – |
| O=C1CCCC(=O)C1C(=O)c1cc2cc(F)cnc2n(-c2cc(Cl)cc(Cl)c2)c1=O [Compound 4.23] | 90 | 90 | 80 | 100 | 70 | 70 | 70 | 80 | 80 | 80 | – | – | – | – | – | – | – | – | – | – |
| Cc1ccc(-n2c(=O)c(C(=O)C3C(=O)CCCC3=O)cc3cc(F)cnc32)cc1 [Compound 4.24] | 80 | 90 | 100 | 100 | 100 | 70 | 80 | 90 | 80 | 80 | – | – | – | – | – | – | – | – | – | – |
| O=C1CCCC(=O)C1C(=O)c1cc2cc(F)cnc2n(-c2cccc(Cl)c2)c1=O [Compound 4.25] | 90 | 100 | 90 | 100 | 50 | 80 | 80 | 80 | 80 | 70 | – | – | – | – | – | – | – | – | – | – |
| O=C1CCCC(=O)C1C(=O)c1cc2cc(F)cnc2n(-c2ccccc2Cl)c1=O [Compound 4.28] | 90 | 100 | 100 | 100 | 50 | 70 | 80 | 80 | 80 | 80 | – | – | – | – | – | – | – | – | – | – |
| COc1ccccc1-n1c(=O)c(C(=O)C2C(=O)CCCC2=O)cc2cc(F)cnc21 [Compound 4.33] | 100 | 100 | 100 | 100 | 100 | 100 | 90 | 80 | 90 | 80 | – | – | – | – | – | – | – | – | – | – |
| O=C1CCCC(=O)C1C(=O)c1cc2cc(F)cnc2n(-c2ccccc2C(F)(F)F)c1=O [Compound 4.34] | 100 | 100 | 100 | 100 | 100 | 90 | 80 | 80 | 90 | 80 | – | – | – | – | – | – | – | – | – | – |
| O=C1CCCC(=O)C1C(=O)c1cc2cc(F)cnc2n(-c2ccc(F)cc2F)c1=O [Compound 4.35] | 90 | 100 | 100 | 100 | 100 | 90 | 80 | 80 | 90 | 90 | – | – | – | – | – | – | – | – | – | – |
| O=C1CCCC(=O)C1C(=O)c1cc2cc(F)cnc2n(-c2ccccc2[N+](=O)[O-])c1=O [Compound 4.36] | – | – | – | – | – | – | – | – | – | – | 90% | 100% | 100% | 100% | 100% | 90% | 80% | 80% | 90% | 80% |
